Earlier results in patent publication US20230136789A1, “POLYMER IMPLANTS” (Foundry Therapeutics, Inc., priority 2020, published 2023).

In the case of CCCCN1CCCCC1C(=O)Nc1c(C)cccc1C (stereo not shown) [bupivacaine], the pKa is listed as “about 8.0”.
